One series concerns Caco-2. The conditions noted are these: Apical pH : Basolateral pH 7.4 : 7.4, Passive&Active, cited from earlier work.
A short description of series [1]: Equilibrium solubility of APIs in aqueous and biorelevant media. It is filed as physicochemical. The conditions noted are these: 37 °C. As to the method:
To evaluate the effect of pH and bile salt concentration within the physiological range on the solubility of APIs, the equilibrium solubility of APIs in various aqueous and biorelevant media was comprehensively investigated. Specifically, aqueous buffers, including pH 1.0 and pH 2.0 HCl solutions; pH 3.0 and pH 4.5 acetum; and pH 5.0, pH 6.5, and pH 8.0 phosphate buffer solutions (PBS), were prepared according to the guidelines outlined in the Chinese Pharmacopoeia. Additionally, biorelevant media such as FaSSGF, FaSSIF, and FeSSIF were prepared following the prescribed method for biorelevant power. An excess amount of solid drug powder was added to vials containing 20 mL of the corresponding medium, and tests were conducted with continuous stirring at 37 °C for 24 h. Drug concentration was detected every minute through an in situ fiber-optic UV dissolution real-time monitoring system (Pion Scientific Instruments, Billerica, MA, USA). All measurements were performed in triplicate.

The nature of another series: physchem. Particulars: for User log K m:w, ion / User log K m:w, neutral: bile micelle to buffer partition, Evaluated by SIVA software. How it is done:
In this manuscript, PBPK absorption models were developed using SimCYP software (version 20, Sheffield, UK, Certara Company), while the primary solubility parameters were evaluated utilizing SIVA software (version 4, Sheffield, UK, Certara Company). The comprehensive process of parameter evaluation is as follows: Intrinsic solubility (So) and salt limiting solubility factor (SF) values were obtained according to the solubility of the API in different aqueous media and the Henderson–Hasselbalch equation (Equation (1)). Subsequently, the bile micelle to buffer partition coefficients (Km:w) in both ionized (Km:w, ionized) and un-ionized (Km:w, un-ionized) states were evaluated based on the solubility of the APIs in FaSSGF, FaSSIF, and FeSSIF media, employing Equation (1). (1) STot=So×Soscalart×1+BSt/CH2O×Km:w, un-ionized+Sit×1+BSt/CH2O×Km:w, ionized+Sbound,excipt where t is the time; STot is the total solubility of the drug in a given medium (aqueous or biorelevant medium); So is the intrinsic solubility of the drug; Soscalar is the scalar for So used to capture the increased solubility of the drug in a given medium; Si is the ionized aqueous solubility; [BS] is the bile salt concentration in a given biorelevant medium; CH2O is the concentration of water; Km:w, ionized/un-ionized are the bile micelle/buffer partition coefficients for ionized and un-ionized species, respectively; and Sbound, excip is the amount of drug bound to the excipient at a given excipient concentration.

Series [2] can be described thus: Particle size distribution of the APIs (laser diffraction, dry method). The conditions noted are these: API bulk drug. It is filed as physicochemical. As to the method: The particle size of the API directly influences the dissolution rate of formulations and the overall bioavailability of the compound, making it a necessary parameter for establishing the PBPK absorption model. To determine the particle size distributions of the APIs employed in the formulation of rivaroxaban, ticagrelor, and PB-201, the bulk drugs used in the corresponding formulations were measured by the dry method with a Malvern Mastersizer laser diffraction size analyzer (Master 2000, Malvern Instruments Limited, Malvern, UK). Each sample was tested once.

Setting [3] is: HCl solution, simulated gastric fluid, thermodynamic from solid, pH 1.0 HCl.
Setting [4] is: HCl solution, simulated gastric fluid, thermodynamic from solid, pH 2.0 HCl.
The mark [5] stands for this setting: aqueous buffer, thermodynamic from solid, pH 3.0 Acetic acid buffer.
Where [6] appears, read: aqueous buffer, thermodynamic from solid, pH 4.5 Acetic acid buffer.
Setting [7] is: phosphate buffer solution (PBS), aqueous buffer, thermodynamic from solid, pH 5.0 PBS.
[8] abbreviates: phosphate buffer solution (PBS), pH 6.5 PBS.
Setting [9] is: phosphate buffer solution (PBS), pH 8.0 PBS.
[10] abbreviates: thermodynamic from solid, pH 5.0 FeSSIF.
[11] abbreviates: thermodynamic from solid, pH 6.5 FaSSIF.

Values after ≈ are worked out from the molar mass of the structure shown. Like-named read-outs stand apart in the source and are kept apart here.

Regarding `O=C(NC[C@H]1CN(c2ccc(N3CCOCC3=O)cc2)C(=O)O1)c1ccc(Cl)s1` [Rivaroxaban], in the series on Caco-2 (supplement ref 4), the Caco-2 permeability was 8.103 10-6cm/s. For the same compound, the solubility (thermodynamic) (as a rule, the concentration in solution at equilibrium with solid) at 24 h in series [1] (setting [3]) is 6.84 µg/mL (≈ 15.7 µM); in series [1] (setting [4]), 8.18 µg/mL (≈ 18.8 µM); in series [1] (setting [5]) it was 10.6 µg/mL (≈ 24.3 µM); in series [1] (setting [6]) it was 6.55 µg/mL (≈ 15 µM); in series [1] (pH 1.6 FaSSGF), 7.5 µg/mL (≈ 17.2 µM); in series [1] (setting [7]), 4.85 µg/mL (≈ 11.1 µM). For the same compound, the thermodynamic solubility at 24 h in series [1] (setting [8]) was 5.84 µg/mL (≈ 13.4 µM); in series [1] (setting [9]), 5.87 µg/mL (≈ 13.5 µM); in series [1] (setting [10]), 10.6 µg/mL (≈ 24.3 µM); in series [1] (setting [11]), 6.17 µg/mL (≈ 14.2 µM). In addition, in the series “physchem” (aqueous buffer), the concentration in solution (solubility) came to 5 µg/mL (≈ 11.5 µM). Also, the “User log K m:w, ion” value in the series “physchem” came out at 3.894. In the series “physchem”, the “User log K m:w, neutral” value is reported as 3.330. Further, the “D (0.1)” value in series [2] is listed as 3.809 μm. Further, in series [2], the “D (0.5)” value was 7.955 μm. Moreover, in series [2], the “D (0.9)” value amounted to 15.532 μm.
`CCCSc1nc(N[C@@H]2C[C@H]2c2ccc(F)c(F)c2)c2nnn([C@@H]3C[C@H](OCCO)[C@@H](O)[C@H]3O)c2n1` [Ticagrelor]: the Caco-2 permeability in the series with Caco-2 (supplement ref 19) was 6.0 10-6cm/s. Besides, the thermodynamic solubility at 24 h in series [1] (setting [3]) was 18 µg/mL (≈ 34.4 µM); in series [1] (setting [4]) it was 8.04 µg/mL (≈ 15.4 µM); in series [1] (setting [5]) it was 11.6 µg/mL (≈ 22.2 µM); in series [1] (setting [6]), 7.47 µg/mL (≈ 14.3 µM); in series [1] (pH 1.6 FaSSGF), 14.2 µg/mL (≈ 27.2 µM); in series [1] (setting [7]), 6.35 µg/mL (≈ 12.2 µM). Further, the thermodynamic solubility at 24 h worked out at 5.97 µg/mL (≈ 11.4 µM) in series [1] (setting [8]), 5.52 µg/mL (≈ 10.6 µM) in series [1] (setting [9]), 4050 µg/mL (≈ 7750 µM) in series [1] (setting [10]) and 306 µg/mL (≈ 586 µM) in series [1] (setting [11]). Also, the “User log K m:w, ion” value in the series “physchem” is 8.226. Further, in the series “physchem”, the “User log K m:w, neutral” value came to 5.941. The “D (0.1)” value in series [2] amounted to 3.045 μm. Moreover, the “D (0.5)” value in series [2] is 6.926 μm. For the same compound, in series [2], the “D (0.9)” value worked out at 13.605 μm.

The values above are taken from PMC11511194, “Key Factors for Improving Predictive Accuracy and Avoiding Overparameterization of the PBPK Absorption Model in Food Effect Studies of Weakly Basic Water-Insoluble Compounds in Immediate Release Formulations” (Pharmaceutics, 2024).
